Measurements: article PMC8954831, “Design, Synthesis, Molecular Docking, and Biological Evaluation of Pyrazole Hybrid Chalcone Conjugates as Potential Anticancer Agents and Tubulin Polymerization Inhibitors” (Pharmaceuticals, 2022)
Like-named read-outs stand apart in the source and are kept apart here.

Key:
[1] = test system: PC-3 (prostate cancer cell line); experiment: In vitro cytotoxicity, MTT assay, PC-3; assay type: cell-based; settings: Homo sapiens, 48 h, read-out: IC50 PC3
Description: (§1) The resultant compounds were tested for their in vitro cytotoxic activity by MTT assay against breast (MCF-7), cervical (SiHa), and prostate (PC-3) cancer cell lines, and the human embryonic kidney cell line (HEK). […] Subsequently, SAR studies were done by investigating the effect of substituents on cytotoxic activity.
(§2) Human cervical cancer cell line SiHa, human breast cancer cell line MCF-7, human prostate cancer cell line PC-3, and human embryonic kidney HEK-293 cells were procured from the National Centre for Cell Sciences (NCCS) Pune, India. In this experiment, antibiotics (100 units/mL penicillin and 100 mg L^−1 streptomycin were grown as a monolayer culture in Dulbecco’s modified Eagle’s medium containing 10% fetal bovine serum) were cultured in a humidified atmosphere of 5% CO2 at 37 °C in T-75 flasks and subcultured twice a week.
(§3) The cytotoxic effects of the selected compounds were evaluated by MTT assay on the above-mentioned cell lines. Initially, 2 × 10^4 cells/well were seeded into 96-well plates (150 µL/well) in triplicates and allowed to grow. The cells were incubated for 24 h and subsequently treated with varying concentrations of the compounds. After 48 h, the cells were incubated with 20 μL of MTT (5 mg/mL in PBS) in a fresh medium for 4 h at 37 °C. MTT is a metabolic substrate that is reduced to give formazan crystals, which were solubilized in DMSO (150 µL/well) and analyzed by reading the absorbance at 540 nm after 15 min of the incubation period on the iMark Microplate Reader (Bio-Rad). Percentage viability and IC50 values were used to determine the relative absorbance of treated versus control (untreated) cells.

[2] = target: tubulin (purified brain tubulin) (Sus scrofa, UniProt P02550+P02554); experiment: In vitro tubulin polymerization assay (fluorescence); assay type: biochemical; settings: for inhibition at 10 µM: read-out: % Inhibition of Tubulin Polymerization at 10 µM; for inhibition at 3 µM: read-out: % Inhibition of Tubulin Polymerization
Description: The α and β tubulin subunits are recognized by heterodimers and self-assemble into a stable microtubule in a time-dependent manner. Assessment of the inhibitory effect of new pyrazolic chalcone conjugates on tubulin polymerization was also carried out. The progression of tubulin polymerization was thus examined by monitoring the increase in the fluorescence intensity at 450 nm (excitation wavelength of 360 nm) in a 384-plate for 1 h at 37 °C with and without the conjugate at 10 µM concentration. CA-4 (6 µM) and Vincristine (3 µM) were used as the positive control, whereas paclitaxel (3 µM) was used as the negative control.
Tubulin polymerization is a dynamic process by enhancement of fluorescence intensity due to the combination of a fluorescent reporter into the microtubules as polymerization occurs. Tubulin polymerization was performed by using a purified brain tubulin polymerization kit purchased from Cytoskeleton (BK110P, Denver, CO, USA). The tubulin polymerization assay was monitored by the increase in fluorescence over a 60 min period at 37 °C, with excitation at 360 nm and emission at 450 nm. The final buffer concentration for tubulin polymerization contained 80 mM PIPES, pH 6.9; 2 mM MgCl2; 0.5 mM EGTA; […]; and 15% glycerol. Firstly, 5 µL of the test compounds (final concentration of 10 µM) was added and then warmed to 37 °C for 1 min. The reaction was initiated by adding 50 µL of the tubulin reaction mix as specified for 6 min.

[3] = test system: HEK-293 (human embryonic kidney cells); experiment: In vitro cytotoxicity, MTT assay, HEK-293 normal cells; assay type: cell-based; settings: for IC50: read-out: IC50 HEK-293
Description: as §1, §2, §3

[4] = test system: SiHa (cervical cancer cell line); experiment: In vitro cytotoxicity, MTT assay, SiHa; assay type: cell-based; settings: Homo sapiens, 48 h, read-out: IC50 SiHa
Description: as §1, §2, §3

[5] = test system: MCF-7 (breast cancer cell line); experiment: In vitro cytotoxicity, MTT assay, MCF-7; assay type: cell-based, human
Description: as §1, §2, §3

[6] = HEK293, MTT, 48 h, human normal cell line
[7] = Homo sapiens, MCF7, MTT, 48 h, breast cancer, read-out: IC50 MCF-7

Sequence of tubulin (purified brain tubulin) (P02550 whole entry): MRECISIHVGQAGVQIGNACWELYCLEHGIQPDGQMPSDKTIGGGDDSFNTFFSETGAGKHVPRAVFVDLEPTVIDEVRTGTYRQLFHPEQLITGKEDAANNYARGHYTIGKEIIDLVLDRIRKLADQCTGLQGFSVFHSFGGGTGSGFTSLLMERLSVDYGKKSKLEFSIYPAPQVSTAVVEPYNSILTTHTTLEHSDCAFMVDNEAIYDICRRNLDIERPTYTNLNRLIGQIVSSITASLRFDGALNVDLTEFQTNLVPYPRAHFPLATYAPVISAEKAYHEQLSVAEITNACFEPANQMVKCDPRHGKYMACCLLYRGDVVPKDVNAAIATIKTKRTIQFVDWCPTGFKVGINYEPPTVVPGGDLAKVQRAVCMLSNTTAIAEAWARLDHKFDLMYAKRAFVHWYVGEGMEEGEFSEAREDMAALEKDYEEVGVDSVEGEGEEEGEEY
Sequence of tubulin (purified brain tubulin) (P02554 whole entry): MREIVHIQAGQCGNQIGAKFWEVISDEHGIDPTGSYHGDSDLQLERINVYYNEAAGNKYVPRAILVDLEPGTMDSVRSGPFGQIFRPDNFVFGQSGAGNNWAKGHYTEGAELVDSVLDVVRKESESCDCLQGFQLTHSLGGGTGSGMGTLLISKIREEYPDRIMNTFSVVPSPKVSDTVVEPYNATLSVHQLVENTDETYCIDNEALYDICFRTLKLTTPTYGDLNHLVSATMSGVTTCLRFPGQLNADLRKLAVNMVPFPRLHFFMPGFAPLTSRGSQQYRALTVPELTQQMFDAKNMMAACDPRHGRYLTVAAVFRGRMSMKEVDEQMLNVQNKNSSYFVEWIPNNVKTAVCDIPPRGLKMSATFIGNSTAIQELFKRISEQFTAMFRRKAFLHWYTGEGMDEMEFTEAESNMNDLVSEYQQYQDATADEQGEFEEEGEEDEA

Structure (SMILES) | melting point | IC50 ([1]; MTT, prostate cancer) | inhibition at 10 µM [2] | IC50 [3, 6] | IC50 ([4]; MTT, cervical cancer) | IC50 [5, 7] | other results
O=C(/C=C/c1cn(-c2ccccc2)nc1-c1ccc(OCc2ccccc2)cc1)c1ccccc1Cl [Compound 5b, (E)-3-(3-(4-(benzyloxy)phenyl)-1-phenyl-1H-pyrazol-4-yl)-1-(2-chlorophenyl)prop-2-en-1-one] | 182 to 184 °C |  |  |  |  |  | 
COc1ccc(C(=O)/C=C/c2cn(-c3ccccc3)nc2-c2ccc(OCc3ccccc3)cc2)cc1 [Compound 5k, (E)-3-(3-(4-(benzyloxy)phenyl)-1-phenyl-1H-pyrazol-4-yl)-1-(4-methoxyphenyl)prop-2-en-1-one] | 187 to 189 °C | 5.45 ± 0.94 µM | 32.8% | > 50 µM | 5.65 ± 0.71 µM | 7.23 ± 0.74 µM | 
CC(=O)O[C@H]1C(=O)[C@@]2(C)[C@H]([C@H](OC(=O)c3ccccc3)[C@]3(O)C[C@H](OC(=O)[C@H](O)[C@@H](NC(=O)c4ccccc4)c4ccccc4)C(C)=C1C3(C)C)[C@]1(OC(C)=O)CO[C@@H]1C[C@@H]2O [Paclitaxel, paclitaxel, reference compound] |  |  |  |  |  |  | inhibition at 3 µM [2]: -25.7%
O=C(/C=C/c1cn(-c2ccccc2)nc1-c1ccc(OCc2ccccc2)cc1)c1ccc(O)cc1 [Compound 5h, (E)-3-(3-(4-(benzyloxy)phenyl)-1-phenyl-1H-pyrazol-4-yl)-1-(4-hydroxyphenyl)prop-2-en-1-one] | 167 to 169 °C |  |  |  |  |  | 
Cc1ccc(C(=O)/C=C/c2cn(-c3ccccc3)nc2-c2ccc(OCc3ccccc3)cc2)cc1 [Compound 5j, (E)-3-(3-(4-(benzyloxy)phenyl)-1-phenyl-1H-pyrazol-4-yl)-1-(p-tolyl)prop-2-en-1-one] | 205 to 207 °C |  |  |  |  |  | 
O=C(/C=C/c1cn(-c2ccccc2)nc1-c1ccc(OCc2ccccc2)cc1)c1ccc(Cl)cc1Cl [Compound 5m, (E)-3-(3-(4-(benzyloxy)phenyl)-1-phenyl-1H-pyrazol-4-yl)-1-(2,4dichlorophenyl)prop-2-en-1-one] | 192 to 194 °C | 11.2 ± 1.44 µM | 33.8% | > 50 µM | 6.46 ± 1.52 µM | 17.1 ± 2.25 µM | 
O=C(/C=C/c1cn(-c2ccccc2)nc1-c1ccc(OCc2ccccc2)cc1)c1ccc(Br)cc1 [Compound 5g, (E)-3-(3-(4-(benzyloxy)phenyl)-1-phenyl-1H-pyrazol-4-yl)-1-(4-bromophenyl)prop-2-en-1-one] | 178 to 180 °C |  |  |  |  |  | 
O=C(/C=C/c1cn(-c2ccccc2)nc1-c1ccc(OCc2ccccc2)cc1)c1ccc([N+](=O)[O-])cc1 [Compound 5i, (E)-3-(3-(4-(benzyloxy)phenyl)-1-phenyl-1H-pyrazol-4-yl)-1-(4-nitrophenyl)prop-2-en-1-one] | 223 to 225 °C | 13.1 ± 1.6 µM | 28.4% | 45.2 ± 2.6 µM | 34.5 ± 0.9 µM | 42.7 ± 0.34 µM | 
COc1ccc(/C=C\c2cc(OC)c(OC)c(OC)c2)cc1O [Combretastatin A-4, reference compound] |  |  |  |  |  |  | IC50 [1]: 3.86 ± 0.39 µM; IC50 ([3]; Homo sapiens, HEK293, 48 h): 19.2 ± 1.65 µM; IC50 [4]: 5.23 ± 0.85 µM; IC50 ([5]; Homo sapiens, MCF7, 48 h, read-out: IC50 MCF-7, MTT, 48 h, breast cancer): 4.12 to 5.23 µM; IC50 ([5]; read-out: IC50 MCF-7, MTT, 48 h, breast cancer, listed as CA-4): 4.12 ± 0.38 µM
COc1ccc(C(=O)/C=C/c2cn(-c3ccccc3)nc2-c2ccc(OCc3ccccc3)cc2)c(OC)c1 [Compound 5p, (E)-3-(3-(4-(benzyloxy)phenyl)-1-phenyl-1H-pyrazol-4-yl)-1-(2,4-dimethoxyphenyl)prop-2-en-1-one] | 226 to 228 °C | 6.52 ± 1.23 µM | 51.1% | > 50 µM | 4.98 ± 0.54 µM | 3.45 ± 1.28 µM | 
O=C(/C=C/c1cn(-c2ccccc2)nc1-c1ccc(OCc2ccccc2)cc1)c1ccc(Cl)cc1 [Compound 5e, (E)-3-(3-(4-(benzyloxy)phenyl)-1-phenyl-1H-pyrazol-4-yl)-1-(4-chlorophenyl)prop-2-en-1-one] |  | 9.68 ± 1.42 µM | 48.4% | > 50 µM | 12.3 ± 1.32 µM | 11.5 ± 1.62 µM | 
O=C(/C=C/c1cn(-c2ccccc2)nc1-c1ccc(OCc2ccccc2)cc1)c1cccc(O)c1 [Compound 5d, (E)-3-(3-(4-(benzyloxy)phenyl)-1-phenyl-1H-pyrazol-4-yl)-1-(3-hydroxyphenyl)prop-2-en-1-one] | 184 to 186 °C | 2.97 ± 0.88 µM | 49.8% | > 50 µM | 4.85 ± 0.89 µM | 4.1 ± 1.12 µM | 
COc1ccc(C(=O)/C=C/c2cn(-c3ccccc3)nc2-c2ccc(OCc3ccccc3)cc2)c(Br)c1 [Compound 5q, (E)-3-(3-(4-(benzyloxy)phenyl)-1-phenyl-1H-pyrazol-4-yl)-1-(2-bromo-4-methoxyphenyl)prop-2-en-1-one] | 174 to 176 °C |  |  |  |  |  | 
O=C(/C=C/c1cn(-c2ccccc2)nc1-c1ccc(OCc2ccccc2)cc1)c1ccc(F)cc1 [Compound 5f, (E)-3-(3-(4-(benzyloxy)phenyl)-1-phenyl-1H-pyrazol-4-yl)-1-(4-fluorophenyl)prop-2-en-1-one] | 168 to 170 °C |  |  |  |  |  | 
O=C(/C=C/c1cn(-c2ccccc2)nc1-c1ccc(OCc2ccccc2)cc1)c1ccc(O)cc1O [Compound 5n, (E)-3-(3-(4-(benzyloxy)phenyl)-1-phenyl-1H-pyrazol-4-yl)-1-(2,4-dihydroxyphenyl)prop-2-en-1-one] | 176 to 178 °C | 3.56 ± 0.63 µM | 47.6% | > 50 µM | 3.6 ± 0.45 µM | 6.98 ± 1.12 µM | 
CC[C@]1(O)C[C@H]2CN(CCc3c([nH]c4ccccc34)[C@@](C(=O)OC)(c3cc4c(cc3OC)N(C=O)[C@H]3[C@@](O)(C(=O)OC)[C@H](OC(C)=O)[C@]5(CC)C=CCN6CC[C@]43[C@@H]65)C2)C1 [Vincristine, reference compound] |  |  |  |  |  |  | inhibition at 3 µM [2]: 75.5%
COc1ccc(C(=O)/C=C/c2cn(-c3ccccc3)nc2-c2ccc(OCc3ccccc3)cc2)cc1OC [Compound 5o, (E)-3-(3-(4-(benzyloxy)phenyl)-1-phenyl-1H-pyrazol-4-yl)-1-(3,4-dimethoxyphenyl)prop-2-en-1-one] | 206 to 208 °C | 4.46 ± 0.53 µM | 66.4% | > 50 µM | 4.34 ± 0.98 µM | 2.13 ± 0.8 µM | toxicity to the HEK cells ([3]; in words): did not exhibit significant toxicity
O=C(/C=C/c1cn(-c2ccccc2)nc1-c1ccc(OCc2ccccc2)cc1)c1ccc(C(F)(F)F)cc1 [Compound 5r, (E)-3-(3-(4-(benzyloxy)phenyl)-1-phenyl-1H-pyrazol-4-yl)-1-(4-(trifluoromethyl)Phenyl)prop-2-en-1-one] | 186 to 188 °C | > 50 µM | 31.5% | 38.3 ± 1.72 µM | > 50 µM | 14.8 ± 2.76 µM | 
O=C(/C=C/c1cn(-c2ccccc2)nc1-c1ccc(OCc2ccccc2)cc1)c1cccc([N+](=O)[O-])c1 [Compound 5c, (E)-3-(3-(4-(benzyloxy)phenyl)-1-phenyl-1H-pyrazol-4-yl)-1-(3-nitrophenyl)prop-2-en-1-one] | 203 to 205 °C |  |  |  |  |  | 
O=C(/C=C/c1cn(-c2ccccc2)nc1-c1ccc(OCc2ccccc2)cc1)c1ccc(Cl)c(Cl)c1 [Compound 5l, (E)-3-(3-(4-(benzyloxy)phenyl)-1-phenyl-1H-pyrazol-4-yl)-1-(3,4-dichlorophenyl)prop-2-en-1-one] | 243 to 245 °C | 5.84 ± 1.65 µM | 55.2% | > 50 µM | 11.7 ± 2.83 µM | 8.23 ± 1.45 µM | 
